Laboratory results published in US11230526B1, “Cylcoalkenyl derivatives useful as agonists of the GPR120 and/or GPR40 receptors” (Janssen Pharmaceutica NV, priority 2018, dated 2022).
pEC50: −log10 of the molar value.

Experiments:
[1] = biological target: T1, short form of the GPR120 receptor (Homo sapiens, UniProt Q5NUL3); test: Human GPR120 DiscoveRx PathHunter Beta-Arrestin assay, Procedure β-arrestin B; format: cell-based
T1 construct: host or cells: PathHunter CHO-K1 GPR120S β-Arrestin Cell Line
T1 sequence (P32121 whole entry partner, one chain of several): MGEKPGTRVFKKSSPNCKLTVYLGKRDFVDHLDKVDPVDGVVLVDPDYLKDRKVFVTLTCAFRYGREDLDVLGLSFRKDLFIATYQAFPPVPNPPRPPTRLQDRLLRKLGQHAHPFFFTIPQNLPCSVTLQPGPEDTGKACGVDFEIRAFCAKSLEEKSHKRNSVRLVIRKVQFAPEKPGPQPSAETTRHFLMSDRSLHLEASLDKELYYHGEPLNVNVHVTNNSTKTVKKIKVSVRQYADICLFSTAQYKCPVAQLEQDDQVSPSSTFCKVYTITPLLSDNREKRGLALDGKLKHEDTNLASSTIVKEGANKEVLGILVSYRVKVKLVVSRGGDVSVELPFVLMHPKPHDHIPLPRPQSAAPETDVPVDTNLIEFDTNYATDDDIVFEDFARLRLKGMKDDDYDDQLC

Human GPR120 short form = biological target: T2, Human GPR120 short form (Homo sapiens, UniProt Q5NUL3); test: Human GPR120 calcium flux assay, Procedure Calcium B (4200 cells/well); format: cell-based
T2 construct: expressed in transfected cells
T2 sequence (Q5NUL3 1-361): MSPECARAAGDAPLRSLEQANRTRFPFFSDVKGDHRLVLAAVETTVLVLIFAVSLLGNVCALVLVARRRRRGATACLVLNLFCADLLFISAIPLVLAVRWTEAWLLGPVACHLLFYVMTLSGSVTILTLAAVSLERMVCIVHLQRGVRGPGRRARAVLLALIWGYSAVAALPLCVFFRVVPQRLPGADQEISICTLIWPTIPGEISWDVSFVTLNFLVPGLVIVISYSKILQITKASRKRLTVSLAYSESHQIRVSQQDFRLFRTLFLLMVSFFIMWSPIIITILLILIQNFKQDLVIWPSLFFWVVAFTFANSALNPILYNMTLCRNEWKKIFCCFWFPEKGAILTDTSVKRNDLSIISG
Method in brief: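 HEK293 cells stably expressing human GPR120 (NM_001195755.1), 4200 cells/well, starved 1 h and loaded with Fluo-4 NW plus probenecid. Ligand-evoked calcium flux read on FLIPR for 300 s after a 10 s baseline. RFU = Fmax−Fmin; EC50 from four-parameter concentration-response fit.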

SMILES	pEC50 [1]	pEC50 (Human GPR120 short form)
Cc1c(CCC(=O)O)ccc(OCC2=C(c3ccc(Cl)cc3)CCC2)c1C [Compound 15, 3-(4-((2-(4-chlorophenyl)cyclopent-1-en-1-yl)methoxy)-2,3-dimethylphenyl)Propanoic Acid]	6.91	7.15
CCc1ccc(C2=C(COc3c(F)cc(CCC(=O)O)cc3F)CCC2)cc1 [Compound 16, 3-(4-((2-(4-ethylphenyl)cyclopent-1-en-1-yl)methoxy)-3,5-difluorophenyl)Propanoic Acid]	6.83	7.31
Cc1c(CCC(=O)O)ccc(OCC2=C(c3ccccc3)CCC2)c1C [Compound 23, 3-(2,3-dimethyl-4-((2-phenylcyclopent-1-en-1-yl)methoxy)phenyl)Propanoic Acid]	6.47	6.94
CCc1ccc(C2=C(COc3ccc(CCC(=O)O)c(F)c3F)CCC2)cc1 [Compound 25, 3-(4-((2-(4-ethylphenyl)cyclopent-1-en-1-yl)methoxy)-2,3-difluorophenyl)Propanoic Acid]	7.05	
CCc1ccc(C2=C(COc3ccc(CCC(=O)O)c(C)c3C)CCC2)cc1 [Compound 27, 3-(4-((2-(4-ethylphenyl)cyclopent-1-en-1-yl)methoxy)-2,3-dimethylphenyl)Propanoic Acid]	7.11	7.24
O=C(O)CCc1ccc(OCC2=C(c3ccc(Cl)cc3)CCC2)cc1F [Compound 47, 3-[4-[[2-(4-chlorophenyl)cyclopenten-1-yl]methoxy]-2-fluoro-phenyl]Propanoic Acid]	6.56	6.99
Cc1ccc(C2=C(COc3ccc(CCC(=O)O)c(C)c3C)CCC2)cc1 [Compound 52, 3-[2,3-dimethyl-4-[[2-(p-tolyl)cyclopenten-1-yl]methoxy]phenyl]Propanoic Acid]	7.20	7.62
O=C(O)CCc1cc(F)c(OCC2=C(c3ccc(Cl)cc3)CCC2)c(F)c1 [Compound 60, 3-[4-[[2-(4-chlorophenyl)cyclopenten-1-yl]methoxy]-3,5-difluoro-phenyl]Propanoic Acid]	6.44	6.99
Cc1cc(CCC(=O)O)ccc1OCC1=C(c2ccc(Cl)cc2)CCC1 [Compound 62, 3-[4-[[2-(4-chlorophenyl)cyclopenten-1-yl]methoxy]-3-methyl-phenyl]Propanoic Acid]	7.12	7.57
COc1cc(F)cc(C2=C(COc3ccc(CCC(=O)O)c(C)c3C)CCC2)c1 [Compound 65, 3-[4-[[2-(3-fluoro-5-methoxy-phenyl)cyclopenten-1-yl]methoxy]-2,3-dimethyl-phenyl]Propanoic Acid]	5.79	6.21
O=C(O)CCc1ccc(OCC2=C(c3ccc(Cl)cc3)CCC2)c(F)c1F [Compound 70, 3-[4-[[2-(4-chlorophenyl)cyclopenten-1-yl]methoxy]-2,3-difluoro-phenyl]Propanoic Acid]	7.14	7.64
Cc1ccc(C2=C(COc3ccc(CCC(=O)O)c(F)c3F)CCC2)c(C)c1 [Compound 72, 3-(4-((2-(2,4-dimethylphenyl)cyclopent-1-en-1-yl)methoxy)-2,3-difluorophenyl)Propanoic Acid]	6.19	6.61
Cc1c(CCC(=O)O)ccc(OCC2=C(c3cccs3)CCC2)c1C [Compound 77, 3-[2,3-dimethyl-4-[[2-(2-thienyl)cyclopenten-1-yl]methoxy]phenyl]Propanoic Acid]	6.43	6.91
Cc1c(CCC(=O)O)ccc(OCC2=C(c3nccs3)CCC2)c1C [Compound 79, 3-[2,3-dimethyl-4-[(2-thiazol-2-ylcyclopenten-1-yl)methoxy]phenyl]Propanoic Acid]	6.22	6.72
Cc1ccc(C2=C(COc3ccc(CCC(=O)O)c(C)c3C)CCC2)cc1F [Compound 80, 3-(4-((2-(3-fluoro-4-methylphenyl)cyclopent-1-en-1-yl)methoxy)-2,3-dimethylphenyl)Propanoic Acid]	6.86	7.72
Cc1ccc(C2=C(COc3ccc(CCC(=O)O)c(C)c3C)CCC2)c(C)c1 [Compound 82]	5.96	6.62
Cc1c(CCC(=O)O)ccc(OCC2=C(c3cncs3)CCC2)c1C [Compound 88, 3-[2,3-dimethyl-4-[(2-thiazol-5-ylcyclopenten-1-yl)methoxy]phenyl]Propanoic Acid]	6.23	6.63
Cc1ccc(C2=C(COc3ccc(CCC(=O)O)c(F)c3F)CCC2)cc1 [Compound 94, 3-(2,3-difluoro-4-((2-(p-tolyl)cyclopent-1-en-1-yl)methoxy)phenyl)Propanoic Acid]	7.33	7.64
Cc1c(CCC(=O)O)ccc(OCC2=C(c3ncccn3)CCC2)c1C [Compound 105, 3-[2,3-dimethyl-4-[(2-pyrimidin-2-ylcyclopenten-1-yl)methoxy]phenyl]Propanoic Acid]	6.35	6.74
Cc1ccc(C2=C(COc3ccc(CCC(=O)O)c(C)c3C)CCC2)cc1C [Compound 106, 3-(4-((2-(3,4-dimethylphenyl)cyclopent-1-en-1-yl)methoxy)-2,3-dimethylphenyl)Propanoic Acid]	6.07	6.25

Now from value to molecule:

pEC50 [1]	pEC50 (Human GPR120 short form)	SMILES
6.79	7.36	Cc1c(CCC(=O)O)ccc(OCC2=C(c3ccc(F)cc3)CCC2)c1C [Compound 4, 3-[4-[[2-(4-fluorophenyl)cyclopenten-1-yl]methoxy]-2,3-dimethyl-phenyl]Propanoic Acid]
< 5.30		Cc1c(CCC(=O)O)ccc(OCC2=C(c3ccc(OC(F)(F)F)cc3)CCC2)c1C [Compound 20, 3-(2,3-dimethyl-4-((2-(4-(trifluoromethoxy)phenyl)cyclopent-1-en-1-yl)methoxy)phenyl)Propanoic Acid]
6.56	6.80	Cc1c(CCC(=O)O)ccc(OCC2=C(c3cccc(Cl)c3)CCC2)c1C [Compound 58, 3-[4-[[2-(3-chlorophenyl)cyclopenten-1-yl]methoxy]-2,3-dimethyl-phenyl]Propanoic Acid]
6.20	6.69	Cc1c(CCC(=O)O)ccc(OCC2=C(c3ccc(Cl)c(Cl)c3)CCC2)c1C [Compound 66, 3-[4-[[2-(3,4-dichlorophenyl)cyclopenten-1-yl]methoxy]-2,3-dimethyl-phenyl]Propanoic Acid]
6.55	6.87	Cc1c(CCC(=O)O)ccc(OCC2=C(c3ccccc3Cl)CCC2)c1C [Compound 76, 3-[4-[[2-(2-chlorophenyl)cyclopenten-1-yl]methoxy]-2,3-dimethyl-phenyl]Propanoic Acid]
7.12	7.47	Cc1ccc(C2=C(COc3ccc(CCC(=O)O)c(F)c3F)CCC2)cc1F [Compound 78, 3-(2,3-difluoro-4-((2-(3-fluoro-4-methylphenyl)cyclopent-1-en-1-yl)methoxy)phenyl)Propanoic Acid]
6.20	6.84	Cc1ccc(C2=C(COc3ccc(CCC(=O)O)c(F)c3F)CCC2)cc1C [Compound 83, 3-(4-((2-(3,4-dimethylphenyl)cyclopent-1-en-1-yl)methoxy)-2,3-difluorophenyl)Propanoic Acid]
6.27	6.54	Cc1ccc(C2=C(COc3c(F)cc(CCC(=O)O)cc3F)CCC2)cc1C [Compound 84, 3-(4-((2-(3,4-dimethylphenyl)cyclopent-1-en-1-yl)methoxy)-3,5-difluorophenyl)Propanoic Acid]
6.14	6.63	Cc1ccc(C2=C(COc3ccc(CCC(=O)O)c(C)c3C)CCC2)cn1 [Compound 85, 3-(2,3-dimethyl-4-((2-(6-methylpyridin-3-yl)cyclopent-1-en-1-yl)methoxy)phenyl)Propanoic Acid]
6.23	6.19	Cc1ccc(C2=C(COc3ccc(CCC(=O)O)c(F)c3F)CCC2)cc1N [Compound 93, 3-(4-((2-(3-amino-4-methylphenyl)cyclopent-1-en-1-yl)methoxy)-2,3-difluorophenyl)Propanoic Acid]
7.12	7.49	Cc1ccc(C2=C(COc3c(F)cc(CCC(=O)O)cc3F)CCC2)cc1 [Compound 95, 3-(3,5-difluoro-4-((2-(p-tolyl)cyclopent-1-en-1-yl)methoxy)phenyl)Propanoic Acid]
6.44	6.87	Cc1ccc(C2=C(COc3ccc(CCC(=O)O)cc3C)CCC2)cn1 [Compound 102, 3-(3-methyl-4-((2-(6-methylpyridin-3-yl)cyclopent-1-en-1-yl)methoxy)phenyl)Propanoic Acid]
6.09	6.63	Cc1c(CCC(=O)O)ccc(OCC2=C(c3cccnc3)CCC2)c1C [Compound 108, 3-[2,3-dimethyl-4-[[2-(3-pyridyl)cyclopenten-1-yl]methoxy]phenyl]Propanoic Acid]
5.61	5.89	Cc1ccc(C2=C(COc3c(F)cc(CCC(=O)O)cc3F)CCC2)cc1[N+](=O)[O-] [Compound 109, 3-(3,5-difluoro-4-((2-(4-methyl-3-nitrophenyl)cyclopent-1-en-1-yl)methoxy)phenyl)Propanoic Acid]
	7.19	Cc1c(CCC(=O)O)ccc(OCC2=C(c3ccc(Cl)cc3)CC(F)(F)C2)c1C [Compound 137, 3-[4-[[2-(4-chlorophenyl)-4,4-difluoro-cyclopenten-1-yl]methoxy]-2,3-dimethyl-phenyl]Propanoic Acid]
